# Entries after “also recorded” stand apart in the source; their conditions may differ.
# Columns and labels:
# KRT15 = KRT15 mRNA by RT-qPCR in NHEK culture; assay type: cell-based, human; conditions: DMP 100 nM, 24 hrs, normalized to GAPDH, vs vehicle
# Description: (§1) Primary adult normal human epidermal keratinocytes (NHEK) were cultured in serum-free Keratinocyte Growth Medium 2 (KGM2) up to passage 6 and were seeded on glass slides at a density of 15-20×10^3 cells/cm^2. The next day, the KGM2 culture medium was changed and supplemented with hereafter indicated compounds, their combination or ethanol as vehicle control.
# (§2) For application of the active to the medium (systemic application), 2,5-dimethylpyrazine (DMP), a TRPM5 activator, the DMP stock was dissolved at 37° C. at a final concentration of 10, 12.5 or 100 nM in KGM2. […] After 24 hours, NHEKs were washed in PBS and then either fixed in 4% formaldehyde for 10 minutes are room temperature (immunofluorescence labeling) or lysed in Buffer RLT containing 1% β-mercaptoethanol (for quantitative RT-qPCR).
# (§3) For the assessment of Collagen 17A and Cytokeratin 15 specific mRNA transcripts (COL17A, KRT15) by quantitative RT-qPCR technology, RNA was isolated from cells lysed in Buffer RLT containing 1% β-mercaptoethanol using the RNeasy Mini Kit according to the manufacturer's instructions. RNA purity and concentrations were determined using the BioDrop. […] Real-time quantitative polymerase chain reaction (qRT-PCR) was run in triplicate using TaqMan™ Fast Advanced Master Mix and TaqMan Gene Expression Assays on the QuantStudio. […]
# COL17A1 = COL17A1 mRNA by RT-qPCR in NHEK culture; assay type: cell-based, human; conditions: DMP 10 nM, 24 hrs, normalized to GAPDH, vs vehicle
# Description: as §1, §2, §3
# PGC1α = PGC1α immunofluorescence, quantitative immunohistomorphometry in ex vivo human skin organ culture; assay type: cell-based; conditions: systemic (medium) DMP 12.5 μM, 3 days, vs vehicle
# [1] = test system: Phospho-Histone H3 Ser10 (pH3S10); assay: Phospho-Histone H3 Ser10 (pH3S10) positive cell count in NHEK culture; assay type: cell-based, human; conditions: DMP 100 nM, 24 hrs, vs vehicle
# Description: as §1
# as §2, with “RT-qPCR). […]” for “RT-qPCR).”
# (§4) For the analysis on NHEKs, images were then obtained with a digital microscope (Keyence). Quantitative immunohistomorphometric analysis was performed by assessing the number of positive cells or the relative fluorescence intensity in standardized reference areas with ImageJ (NIH; Bethesda, MD, USA). Briefly, for the evaluation of pH3S10, the number of cells with positive nuclear staining per field was counted and normalized to the total number of DAPI positive nuclei. For each parameter 14-20 microscopic fields were evaluated.
# Lamin B1 = Lamin B1 immunofluorescence, quantitative immunohistomorphometry in ex vivo human skin organ culture; assay type: cell-based; conditions: systemic (medium) DMP 12.5 μM, 3 days, vs vehicle
# Ki67 [2] = assay: Ki67 positive cell count (proliferation) in NHEK culture; assay type: cell-based, human; conditions: DMP 100 nM, 24 hrs, vs vehicle
# Description: as §1
# as §2, with “RT-qPCR). […]” for “RT-qPCR).”
# as §4, with “Ki67,” for “pH3S10,”
# Collagen 17A [3] = assay: Collagen 17A immunofluorescence, quantitative immunohistomorphometry in ex vivo human skin organ culture; assay type: cell-based; conditions: 3 days
# Description: (§5) Samples of human abdominal, breast, temporal, and occipital skin were obtained with written patient consent and under ethical approval from healthy adult human subjects during elective plastic surgery performed for cosmetic reasons. Full-thickness human skin samples were prepared as 4-6 mm punches, placed on filter paper, and cultured at the air-liquid interphase under serum-free conditions in William's E medium supplemented only with penicillin-streptomycin, insulin, hydrocortisone and L-glutamine, as described previously.
# For modelling the application of the actives directly to the skin surface (topical application) 2,5-dimethylpyrazine (DMP), a TRPM5 activator was dissolved at 37° C. at a final concentration of 12.5 mM in a 50% v/v solution of Isopropanol in PBS containing 1 g/mL of Polyethylene glycol 6000. […]
# (§6) Images were then obtained with a digital microscope (Keyence). Quantitative immunohistomorphometric analysis was performed by assessing the relative fluorescent or color intensity in standardized reference areas with ImageJ (NIH; Bethesda, MD, USA). […] Two skin punch biopsies were analyzed per experimental group unless indicated otherwise. […]
# Cytokeratin 15 [4] = assay: Cytokeratin 15 immunofluorescence in normal human epidermal keratinocyte (NHEK) culture; assay type: cell-based; conditions: 24 hrs; for expression of Cytokeratin 15 in NHEKs: vs vehicle
# Description: as §1
# (§7) For application of the active to the medium (systemic application), 2,5-dimethylpyrazine (DMP), a TRPM5 activator, the DMP stock was dissolved at 37° C. at a final concentration of 10, 12.5 or 100 nM in KGM2. For triphenylphosphine oxide (TPPO), a TRPM5 inhibitor, a stock was prepared in ethanol and dissolved at 37° C. at a final concentration of 50 μM in KGM2. After 24 hours, NHEKs were washed in PBS and then either fixed in 4% formaldehyde for 10 minutes are room temperature (immunofluorescence labeling) or lysed in Buffer RLT containing 1% β-mercaptoethanol (for quantitative RT-qPCR).
# (§8) For the detection of Cytokeratin 15 in cell cultures, formalin-fixed NHEKs were permeabilized in PBS containing 0.05% Triton™ X-100 for 10 minutes, rinsed in PBS and then blocked in PBS containing 10% normal goat serum (NGS) for 20 minutes. Next, samples were incubated with an anti-Cytokeratin 15 diluted 1:100 in antibody diluent overnight at 4° C. After consecutive rinses with PBS, samples were incubated with Alexa fluorophore-conjugated secondary antibodies diluted 1:500 in antibody diluent containing 2% NGS for 45 minutes at room temperature. […]
# (§9) For the analysis on NHEKs, images were then obtained with a digital microscope (Keyence). Quantitative immunohistomorphometric analysis was performed by assessing the number of positive cells or the relative fluorescence intensity in standardized reference areas with ImageJ (NIH; Bethesda, MD, USA). Briefly, for the evaluation of Cytokeratin 15, the relative target-specific intensity was measured in 14-20 cells per microscopic field. For each parameter 14-20 microscopic fields were evaluated.
# Cytokeratin 15 [5] = assay: Cytokeratin 15 immunofluorescence, quantitative immunohistomorphometry in ex vivo human skin organ culture; assay type: cell-based; conditions: topical DMP 12.5 mM, 3 days, vs vehicle
# Description: as §5, with “previously. […]” for “previously.”
# as §6
# After consecutive rinses with PBS, samples were incubated with Alexa fluorophore-conjugated secondary antibodies diluted 1:500 in antibody diluent containing 2% normal goat serum for 45 minutes at room temperature. […] Image acquisition and quantitative immunohistomorphometric analysis were performed similar to as described above.
# Ki67 [6] = assay: Ki67 immunofluorescence, quantitative immunohistomorphometry in ex vivo human skin organ culture; assay type: cell-based; conditions: 3 days
# Description: as §5, with “previously. […]” for “previously.”
# as §6
# For the detection of Ki67, formalin-fixed human skin frozen sections were blocked with PBS containing 10% normal goat serum (NGS) for 30 minutes at room temperature and then incubated with an anti-Ki67 antibody diluted 1:800 in PBS containing 2% NGS overnight at 4° C. […] Image acquisition and quantitative immunohistomorphometric analysis were performed similar to as described above.
# Sirtuin-1 = Sirtuin-1 immunohistochemistry, quantitative immunohistomorphometry in ex vivo human skin organ culture; assay type: cell-based; conditions: systemic (medium) DMP 12.5 μM, 3 days, vs vehicle
# Collagen 17A [7] = assay: Collagen 17A immunofluorescence in normal human epidermal keratinocyte (NHEK) culture; assay type: cell-based; conditions: 24 hrs; for expression of Collagen 17A in NHEKs: vs vehicle
# Description: as §1, §7
# as §8, with “Collagen 17A” for “Cytokeratin 15”, “anti-Collagen 17A” for “anti-Cytokeratin 15”
# as §9, with “Collagen 17A,” for “Cytokeratin 15,”
# [8] = topical DMP 12.5 mM, vs vehicle
# [9] = topical TPPO 1.5 mM with topical DMP 12.5 mM
SMILES,gene expression of KRT15 (RT-qPCR) (KRT15),gene expression of COL17A1 (RT-qPCR) (COL17A1),expression of PGC1α in the epidermis (PGC1α),number of pH3S10 positive (dividing and proliferating) NHEKs [1],expression of Lamin B1 in the epidermis (Lamin B1),number of Ki67 positive (proliferating) NHEKs (Ki67 [2]),expression of Collagen 17A in the basal layers of the epidermis (Collagen 17A [3]; [8]),expression of Cytokeratin 15 in NHEKs (Cytokeratin 15 [4]; DMP 12.5 nM),expression of Cytokeratin 15 in NHEKs (Cytokeratin 15 [4]; DMP 100 nM),expression of Cytokeratin 15 in the basal layers of the epidermis (Cytokeratin 15 [5]),expression of Ki67 in the epidermis (Ki67 [6]; [8]),expression of Sirtuin 1 in the epidermis (Sirtuin-1),expression of Collagen 17A in NHEKs (Collagen 17A [7]; DMP 12.5 nM),expression of Collagen 17A in NHEKs (Collagen 17A [7]; DMP 100 nM),effect on DMP-induced upregulation of Collagen 17A expression (Collagen 17A [3]; [9]),effect on DMP-induced upregulation of Cytokeratin 15 expression (Cytokeratin 15 [4]; TPPO 50 μM with DMP 100 nM),effect on DMP-induced upregulation of Ki67 expression (Ki67 [6]; [9]),effect on DMP-induced upregulation of Collagen 17A expression (Collagen 17A [7]; TPPO 50 μM with DMP 100 nM)
"Cc1cnc(C)cn1 [DMP, 2,5-dimethylpyrazine]",markedly increases,markedly increases,markedly increases,markedly increases,markedly increases,markedly increases,upregulate; also recorded: markedly increases,markedly increases,upregulate,markedly increases,upregulate,markedly increases,markedly increases,upregulate,,,,
"O=P(c1ccccc1)(c1ccccc1)c1ccccc1 [TPPO, triphenylphosphine oxide, reference compound]",,,,,,,,,,,,,,,prevented the effect,prevented the effect,prevented the effect,prevented the effect

# Source: US20250177275A1, “ACTIVE AGENT MODULATING THE ACTIVITY OF AN ION CHANNEL FOR USE IN INHIBITION OF SKIN AGING” (Cutaneon - Skin & Hair Innovations GmbH, priority 2022, published 2025)
